From US20090297545A1, “IMMUNOMODULATORY DAIRY PEPTIDES AND USES THEREOF” (Universite Laval, priority 2008, published 2009)
Several values for one entry are separate records, joined by “and”; a condition that tells them apart may be missing. Equal values may be shown once.

Experiments:
Format in all cases: cell-based, BALB/c mice
murine splenocytes [1] = assay: Ex vivo murine splenocytes proliferation assay (Alamar Blue), Example I; settings: peptide 2000 μg/mL, FIG. 2
murine splenocytes [2] = assay: as above
Experimental: Ex vivo murine splenocytes proliferation assay. The splenocytes were isolated from 6- to 12-weeks-old female BALB/c mice (Charles River, St-Constant, QC, Canada) and cultured in the absence and presence of suboptimal concentration of ConA (0.5 μg/mL). The peptides were solubilized in complete RPMI medium, agitated overnight at 4° C. then the solutions were adjusted to pH 7. Thereafter, the peptide solutions were added at various final concentrations (10-2000 μg/mL, protein basis) to the wells of 96-well round-bottomed microplates, which were incubated at 37° C. at 80% relative humidity in a 5% CO2 atmosphere for 72 h (with ConA) or 96 h (without ConA). Cell proliferation was evaluated by the reduction of the fluorochrome Alamar Blue™ (BioSource international, Camarillo, Calif., USA), which was added into the wells for the last 24 h of the incubation periods. The fluorescence of the supernatants was monitored at an excitation wavelength of 560 nm and an emission wavelength of 590 nm using a fluorometer (Fluoroscan Ascent, Thermo Electron Inc., Milford, Mass., USA). The assays were performed in triplicate (three wells per sample) and data are expressed as stimulation indices (SI), and calculated using the following equations: […]

murine splenocytes [3] = assay: Cytokine secretion in splenocyte culture supernatants by ELISA, Example I
Experimental: Cytokine analysis. The supernatants from 72 h-splenocytes cultures were collected and their cytokine content was measured. The optimal incubation times were determined from preliminary assays with peptide fractions. The levels of IL-4, IL-10 and IFN-γ were determined using commercial ELISA kits (BioLegend, San Diego, Calif., USA) according to the manufacturer's instructions. Interleukin-2 levels were also measured by ELISA using a commercial kit (BioSource International, Camarillo, Calif., USA) according to the manufacturer's instructions. The results are the means of four or more assays (three wells per sample). The detection limits for IL-2, IL-4, IL-10 and IFN-γ were <8.0, <1.0, <30.0 and <4.0 pg/mL, respectively.
Cytokine analysis were performed at concentration leading to optimal spleen cells proliferation of peptide β-Lg f139-148 (SEQ ID NO. 1) (2000 μg/mL) as reported in Tables 2 and 3. The sequence β-Lg f78-83 (SEQ ID NO. 10), resulting in no effect on the cytokine secretion of resting- and ConA-stimulated murine splenocytes (results not shown), was used as control at concentration of 10 μg/mL for statistical analysis. The effects of the selected peptide on cytokine secretion from splenocytes cultured in the absence and presence of 0.5 μg/mL of ConA are shown in Table 5.

murine splenocytes [4] = assay: In vitro murine splenocyte proliferation assay (Alamar Blue), Example III; settings: for Effect on ConA-induced proliferation at low concentrations: 10 and 100 μg/mL; for Effect on ConA-induced proliferation at low concentrations / Effect on splenocyte proliferation in the presence of ConA at higher concentrations: ConA 0.5 μg/mL; for Concentration at which stimulation of resting cell proliferation becomes significant: resting cells, dose-dependent up to 2000 μg/mL
Experimental: In vitro murine splenocyte proliferation assay. The impact of whey peptides on splenocyte proliferation was assessed as follow. Spleens from 6-week-old female BALB/c mice (Charles River, St-Constant, QC, Canada) were removed, mechanically disrupted in complete RPMI-1640 medium (RPMI-1640 medium supplemented with 2 mmol L^−1 L-glutamine (Wisent, St-Bruno, QC, Canada), 10% foetal calf serum (FCS, Wisent), 50 μmol L^−1 mercaptoethanol (Sigma-Aldrich), and 100 μg mL^−1 of penicillin/streptomycin (Wisent), and then filtered through 70 μm cell strainer (BD Falcon, Bedford, Mass., USA) under aseptic conditions. Erythrocytes were lysed by osmotic shock using 0.87% NH4Cl (Sigma-Aldrich) for 2 min at 37° C., then cells were washed 3 times at 4° C. with complete RPMI. They were stained with 0.4% trypan blue (Celigro, Mediatech, Washington, D.C., USA) and counted using a Malassez chamber. The cell suspension was then adjusted to 1.25×10^6 viable cells mL^−1 in RPMI medium.
The cells (100 μL) were added to the wells of 96-well round-bottomed microplates containing 50 μL of RPMI, or 50 μL of peptide solutions. Various concentrations (10-2000 μg mL^−1) of the solutions, which were prepared in complete RPMI and adjusted to pH 7, were added to the wells. The same experiments were also performed in the presence of ConA (0.5 μg mL^−1) to evaluate the effects of the products on ConA-stimulated cells. The microplates with and without ConA were incubated for 72 h and 96 h, respectively. Cell proliferation was evaluated by the reduction of the fluorochrome Alamar Blue™ (BioSource international, Camarillo, Calif., USA), which was added to the wells (20 μL) for the last 24 h of the incubation periods. The fluorescence of the supernatants was monitored at an excitation wavelength of 544 nm and an emission wavelength of […] using a fluorometer (Fluoroscan Ascent, Thermo Electron Inc., Milford, Mass., USA). Data are expressed as a stimulation index (SI).

murine splenocytes [5] = assay: Cytokine profile of splenocyte supernatants, RayBio Mouse Cytokine Antibody Array; settings: peptide 2000 μg/mL + ConA 0.5 μg/mL, 72 h; Cells + ConA = 1
Experimental: Cytokine analyses. After 72 hours, the supernatants from the splenocyte cultures with the cells, cells+ConA (0.5 μg/mL), and each of the peptides (2000 μg/mL) in the presence of ConA (0.5 μg/mL) were collected and stored at −20° C. until used for the cytokine detection assay. A cytokine profile analysis was performed by using the RayBio Mouse Cytokine Antibody Array G series 2 (RayBiotech, Inc., Norcross, Ga.), in order to obtain semi-quantitative levels of 32 different growth factors, cytokines and chemokines (Table 7).
Incubation protocol, signal detection, and interpretation of the data were performed according to manufacturer instructions. Results were expressed as the relative quantity of cytokines detected in the culture supernatants calculated according to the following equation: […]

[6] = splenocytes with ConA 0.5 μg mL^−1, control peptide 10 μg/mL
[7] = splenocytes without ConA, control peptide 10 μg/mL

Substance	Effect on ConA-induced proliferation at low concentrations (murine splenocytes [4])	Effect on splenocyte proliferation in the presence of ConA at higher concentrations (murine splenocytes [4])	Concentration at which stimulation of resting cell proliferation becomes significant (murine splenocytes [4]) [µg/mL]	Relative quantity of IFN-γ in supernatant (murine splenocytes [5])	Relative quantity of IL-2 in supernatant (murine splenocytes [5])	Relative quantity of IL-3 in supernatant (murine splenocytes [5])	Relative quantity of IL-4 in supernatant (murine splenocytes [5])	Relative quantity of IL-17 in supernatant (murine splenocytes [5])	Relative quantity of RANTES in supernatant (murine splenocytes [5])	Relative quantity of VEGF in supernatant (murine splenocytes [5])	also measured
IPAVFK (listed as Homo sapiens) [β-Lg f78-83, β-lactoglobulin fragment 78-83 used as control peptide, reference compound]	–	–	–	–	–	–	–	–	–	–	Microscopic appearance of resting- and ConA-stimulated cultured cells (murine splenocytes [1]): no effect on the appearance of cultured cells; Effect on the proliferation of ConA-stimulated murine splenocytes (murine splenocytes [2]; all concentrations studied (10-2000 μg/mL), ConA 0.5 μg/mL, FIG. 1B): no effect; Effect on the proliferation of resting murine splenocytes (murine splenocytes [2]; all concentrations studied (10-2000 μg/mL), FIG. 1A): no effect; Stimulation index, proliferation of murine splenocytes in the presence of Concavanalin A (murine splenocytes [2]; peptide 10 μg mL^−1, 72 h, ConA 0.5 μg/mL): 2.10 and 1.91 and 1.93 and 1.68; Stimulation index, proliferation of resting murine splenocytes (murine splenocytes [2]; peptide 10 μg mL^−1, 96 h, without ConA): 0.98 and 1.00 and 1.11 and 1.02 and 1.04; Effect on the cytokine secretion of resting- and ConA-stimulated murine splenocytes (murine splenocytes [3]; results not shown): no effect; IFN-γ secretion in supernatant (murine splenocytes [3]; [6]): 252.9 pg/mL; IL-2 secretion in supernatant (murine splenocytes [3]; [6]): 15.6 pg/mL; IL-4 secretion in supernatant (murine splenocytes [3]; [6]): 4.4 pg/mL; IL-10 secretion in supernatant (murine splenocytes [3]; [6]): <30.0 pg/mL; IFN-γ secretion in supernatant (murine splenocytes [3]; [7]): 7.1 pg/mL; IL-2 secretion in supernatant (murine splenocytes [3]; [7]): 10.0 pg/mL; IL-4 secretion in supernatant (murine splenocytes [3]; [7]): <1.0 pg/mL; IL-10 secretion in supernatant (murine splenocytes [3]; [7]): <30.0 pg/mL
His-Ile-Arg (HIR; listed as Homo sapiens) [β-Lg f146-148]	inhibited	lost their stimulating capacity	500	8.6	2.1	1.8	0.5	1.4	0.8	4.8	Stimulation index (SI), proliferation of resting splenocytes (murine splenocytes [4]; 500 μg/mL, without ConA): 1.20; Stimulation index (SI), proliferation of resting splenocytes (murine splenocytes [4]; 1000 μg/mL, without ConA): 1.36; Stimulation index (SI), proliferation of resting splenocytes (murine splenocytes [4]; 2000 μg/mL, without ConA): 1.37
GLDIQK (listed as Homo sapiens) [β-Lg f9-14]	–	lost their stimulating capacity	–	1.7	2.6	1.0	1.4	1.1	1.0	2.0	Effect on proliferation of resting splenocytes (murine splenocytes [4]; 10-2000 μg/mL, without ConA): only a small stimulation at the highest concentration
Asp-Thr-Asp-Tyr (DTDY; listed as Homo sapiens) [β-Lg f96-99]	inhibited	lost their stimulating capacity	500	4.5	3.6	2.8	1.8	1.7	1.4	2.3	–
